In patent US20240315992A1, “AMINOXY ACID-BASED ANTIBACTERIAL COMPOUNDS AND METHODS THEREOF” (The University of Hong Kong, priority 2023, published 2024):
In brackets after ≈: the same amount, converted by molar mass.

Columns and labels:
MRSA-USA300 = assay: MIC by CLSI broth micro-dilution, MRSA-USA300; assay type: cell-based; conditions: Staphylococcus aureus, read-out: Minimum inhibitory concentration
Protocol: (§1) Aminoxy acids were synthesized by the standard peptide coupling procedures. Minimum inhibitory concentration was determined using CLSI broth micro-dilution method in 96-wells microtitre plates. Minimum inhibitory concentration is defined as the lowest concentration of the compound that inhibits visible growth of the bacteria. All experiments were performed three times. 24 compounds including aminoxy acid monomers and dipeptides have been identified to show toxicity against multidrug resistant Staphylococcus aureus Mu3 and summarized in Table 1. The minimum inhibitory concentration of compound 8 and compound 35 on other gram-positive bacteria was also evaluated and summarized in Table 2. […] As shown in FIGS. 3A-3B there are no observable hemolysis for compound 8 and compound 35 towards human red blood cell.
(§2) Bacteria were streaked from the glycerol stock into BHI agar and were incubated overnight. Single colony was picked for the overnight culture in cation-adjusted Mueller Hinton broth (CAMH), LB or BHI. The overnight culture was sub-cultured and regrew to exponential phase for the experiment.
(§3) MIC was determined by CLSI broth micro-dilution method in 96-wells microtitre plates. […] Optical density was recorded by DTX 880 multimode detector (Beckman Coulter, California, US). […]

[1] = test system: pre-established Staphylococcus aureus ATCC 35556 biofilm; assay: Reduction of established biofilm (crystal violet); assay type: cell-based; conditions: 24 hours pre-established biofilm treated 24 hours, concentration dependent
Protocol: 24 hours pre-established Staphylococcus. aureus ATCC 35556 biofilm was treated with various concentrations of compound 8, compound 35 or 1% DMSO as negative control for 24 hours. Biofilm was quantified using crystal violet. The data were normalized to DMSO (100% biofilm) and represent average values±S.D. (n=9 per group). Statistical analysis was performed by ANOVA with Dunnett's post-test to calculate p-values adjusted for multiple comparisons with DMSO as control condition (*p<0.05; **p<0.01; ***p<0.001).
Briefly, overnight cultures of Staphylococcus aureus ATCC 35556 in TSB were diluted 1:100 and regrow for 2.5 hours at 37° C., 250 rpm. The bacteria were diluted 1:100 into fresh TSB and 200 μL bacteria in TSB was added to each well of a flat-bottom 96-well plate (200 μL/well). The plate was incubated at 37° C. for 24 hours to establish biofilms. After 24 hours, the supernatant was removed and washed by PBS (200 μL) 2 times. Premixed solution of TSB and compound was prepared in a separate 96-well-plate (200 μL/well; two-folded serial dilutions; final DMSO concentration of maximum 1%). 200 μL compound in TSB was transferred to the plates with established biofilms. […] Following a 1:4 dilution step (33% acetic acid), the optical density was measured at 595 nm by Beckman Coulter DTX 880 Multimode Detector. […]

B. subtilis WT168 = assay: MIC by CLSI broth micro-dilution, B. subtilis WT168; assay type: cell-based; conditions: Bacillus subtilis, read-out: Minimum inhibitory concentration
Protocol: as §1, §2, §3

[2] = test system: E. faecalis clinical strain; assay: MIC by CLSI broth micro-dilution, E. faecalis; assay type: cell-based; conditions: Enterococcus faecalis, BHI medium, read-out: Minimum inhibitory concentration
Protocol: as §1, §2, §3

M. smegmatis mc^2155 = assay: MIC by CLSI broth micro-dilution, M. smegmatis; assay type: cell-based, Mycobacterium smegmatis; conditions: Mycolicibacterium smegmatis; M. smegmatis mc^2155, BHI medium; read-out: Minimum inhibitory concentration
Protocol: as §1, §2, §3

[3] = test system: Staphylococcus aureus ATCC 29213; assay: Autolysis, optical density of culture; assay type: cell-based; conditions: 10×MIC, 24 hours
Protocol: Staphylococcus aureus ATCC 29213 in CAMH was challenged with […] compounds 8 or compound 35. OD595 was measured after 24 hours. Data represented the mean±S.D. of biological triplicates. Statistical analysis was performed by unpaired t test in 95% confidence interval (*=p<0.05; **p<0.01; ***p<0.001; ****[…]).
The overnight culture of Staphylococcus aureus ATCC 29213 was subcultured, regrown to exponential phase and then diluted to OD595=0.4. Bacteria were treated by 10×MIC of compound 8 and compound 35. At T=24 hour, OD595 was measured.

MSSA ATCC 35556 = assay: MIC by CLSI broth micro-dilution, MSSA ATCC 35556; assay type: cell-based; conditions: Staphylococcus aureus, read-out: Minimum inhibitory concentration
Protocol: as §1, §2, §3

[4] = test system: L. monocytogenes clinical strain; assay: MIC by CLSI broth micro-dilution, L. monocytogenes; assay type: cell-based; conditions: Listeria monocytogenes, BHI medium, read-out: Minimum inhibitory concentration
Protocol: as §1, §2, §3

| SMILES | MIC (MRSA-USA300) | established Staphylococcus aureus biofilm [1] | MIC (B. subtilis WT168) | MIC [2] | MIC (M. smegmatis mc^2155) | optical density (OD595) of culture, accelerated autolysis [3] | MIC (MSSA ATCC 35556) | MIC [4] |
| --- | --- | --- | --- | --- | --- | --- | --- | --- |
| CC(C)C[C@H](ONC(=O)[C@@H](COCc1ccccc1)ONC(=O)c1cc(C(F)(F)F)cc(C(F)(F)F)c1)C(=O)Nc1ccc2c(c1)OC(F)(F)O2 [Compound 35] | 3.13 µM (≈ 2.3 µg/mL) | significantly reduced | 1.56 µM (≈ 1.15 µg/mL) | 6.25 µM (≈ 4.6 µg/mL) | 1.56 µM (≈ 1.15 µg/mL) | reduction of the optical density | 0.78 µM (≈ 0.574 µg/mL) | 0.78 µM (≈ 0.574 µg/mL) |
| CC(C)C[C@H](ONC(=O)[C@@H](COCc1ccccc1)ONC(=O)c1cc(C(F)(F)F)cc(C(F)(F)F)c1)C(=O)Nc1ccccc1 [Compound 8] | 3.13 µM (≈ 2.05 µg/mL) | significantly reduced | 3.13 µM (≈ 2.05 µg/mL) | 3.13 µM (≈ 2.05 µg/mL) | 12.5 µM (≈ 8.19 µg/mL) | reduction of the optical density | 3.13 µM (≈ 2.05 µg/mL) | 6.25 µM (≈ 4.1 µg/mL) |
